Data from patent publication US11571413B2, “Nicotinamide riboside treatments of domesticated meat animals” (Kansas State University Research Foundation, priority 2017, dated 2023).

How the values were obtained:
finishing barrows [1] = test: Finishing pig growth performance (Example IV); type: in vivo
Experimental: (§1) Seven days prior to the beginning of the experiment, 10 finishing barrows (initial BW 111.9±1.6 kg) were assigned to individual pens located at the East Finisher facility of the Kansas State University Swine Teaching and Research Center (Manhattan, Kans.). Each pen was 7.4 m^2 with a slatted floor, contained a nipple waterer and an individual dry feeder that allowed ad libitum access to food and water. Barrows were randomly assigned to 1 of 2 NR treatments, 0 or 30 mg/kg daily of NR mixed in Karo® syrup and administered by oral gavage. Barrows were administered their assigned treatment for 10 days, after which they were harvested under USDA inspection. Twenty-four hours after harvest, carcass measurements were taken by trained personnel, carcasses were fabricated into the 5 major wholesale cuts, and whole-boneless loins were vacuum packaged and aged for 10 days. Loin were cut into 3 chops with chop 1 being used for day-0 metmyoglobin reducing ability (MRA) analysis, chop 2 being used for day-4 MRA and oxygen consumption rate (OCR) analyses, and chop 3 for 8-day objective/subjective color evaluation and MRA and OCR analyses.

finishing barrows [2] = test: Finishing pig carcass measures and fabrication (Example IV); type: in vivo; conditions: 10 days
Experimental: as §1

[3] = system: Fertilized broiler eggs (Cobb 500); test: Pectoralis major muscle fiber CSA and density by immunohistochemistry (Example VI); type: in vivo, chicken; conditions: hatched chicks
Experimental: The methods of Noel et al. (2016) were followed for immunohistochemistry with modifications. The PM was removed from the tongue depressor, embedded in tissue embedding media (Fisher Scientific), cooled with isopentane chilled liquid nitrogen, and stored at −80° C. until cryosectioning. Ten micrometer-thick cryosections were cut using a Microm 550 cryostat (Thermo Fisher Scientific, Kalamazoo, Mich.) and six cryosection were collected on positively charged slides (Diamond White Glass; Globe Scientific Inc., Paramus, N.J.). Cryosections were incubated in a blocking solution containing 5% horse serum and 0.2% TritonX-100 in Phosphate Buffered Saline (PBS) for 30 min. Slides were incubated for 1 h at room temperature in a primary antibody solution consisting of blocking solution and 1:500 rabbit, α-dystrophin (Thermo Fisher Scientific). Cryosections were washed 3 times for 5 min each in PBS and incubated for an additional 30 min with blocking solution containing 1:1,000 Alexa-Flour 594 goat-anti-rabbit heavy and light chains (Life Technologies, Carlsbad, Calif.). Cryosections were washed again as stated above, 5 μl of 9:1 glycerol in PBS was placed on each section, and slides were coverslipped for imaging. Cryosections were visualized at 200× magnification using a Nikon Elipse TI-U inverted microscope (Nikon Instruments Inc., Melville, N.Y.), a Nikon DS-QiMC digital camera (Nikon Instruments Inc.) was used to photograph cryosections, and an average of 1,000 fibers were analyzed using NIS-Elements imaging software (Basic Research, 3.3; Nikon Instruments Inc.) to determine fiber cross-section area (CSA).

[4] = system: Fertilized Cobb 500 broiler eggs; test: Pectoralis major succinate dehydrogenase staining intensity (second Example VI); type: in vivo, chicken; conditions: 250, 500 or 1,000 mM NR; hatched chicks
Experimental: The methods of Noel et al. (2016) were followed for succinate dehydrogenase (SDH) staining. Slides were incubated at 37° C. for 1 h in a prewarmed incubation solution containing nitro blue tetrazolium solution, phosphate buffer, and sodium succinate solution. After washing in ultrapure water 3 times for 1 min each, 5 μL of 9:1 glycerol in PBS was placed on each cryosection and they were coverslipped for imaging. All cryosections were imaged at 200× magnification using a Nikon Eclipse TI-U inverted microscope (Nikon Instruments Inc., Melville, N.Y.). Immunohistochemistry photomicrographs were collected with a DS-QiMC digital camera (Nikon Instruments Inc.) and SDH cryosections were collected with a Nikon DS-Fil color digital camera (Nikon Instruments Inc.) White light intensity was kept constant for SDH photomicrographs. All photomicrograph collection and image analyses were conducted using NIS Elements Basic Software (Nikon Instruments Inc.). Cross-sectional area (CSA) of a minimum of 1,000 muscle fibers per chick was determined as the area within the dystrophin border. The number of satellite cell was determined as nuclei co-staining for Pax 7 and Hoechst dye located at the periphery of muscle fiber. A minimum of 50 muscle fiber bundles per chick were analyzed for SDH mean intensity using the same software. […]

[5] = d 0 to 17, NR 30 mg/kg daily d 7 to 17

NC(=O)c1ccc[n+]([C@@H]2O[C@H](CO)[C@@H](O)[C@H]2O)c1 [Nicotinamide riboside, nicotinamide riboside]
Increase of average daily gain (numerical) (finishing barrows [1]; 30 mg/kg daily oral gavage over 10 days): 8% | Body weight (finishing barrows [1]; d 0 (NR 30 mg/kg given d 7 to 17; before treatment)): 112.0 kg | Average daily gain (finishing barrows [1]; d 0 to 7 (before NR treatment)): 0.7 kg | Average daily feed intake (finishing barrows [1]; [5]): 3.8 kg | Average daily gain (finishing barrows [1]; [5]): 1.1 kg | Feed to gain ratio (finishing barrows [1]; [5]): 3.42 | Body weight (finishing barrows [1]; d 7 (start of NR 30 mg/kg, d 7 to 17)): 117.0 kg | Average daily gain (finishing barrows [1]; d 7 to 17, NR 30 mg/kg daily): 1.43 kg | Body weight (finishing barrows [1]; d 17, NR 30 mg/kg daily d 7 to 17): 131.3 kg | 1st rib subcutaneous fat (finishing barrows [2]; NR 30 mg/kg daily oral gavage): 1.76 cm | 10th rib subcutaneous fat (finishing barrows [2]; NR 30 mg/kg daily oral gavage): 0.95 cm | Carcass fabrication, Belly (finishing barrows [2]; NR 30 mg/kg daily oral gavage): 7.93 kg | Carcass fabrication, Boneless loin (finishing barrows [2]; NR 30 mg/kg daily oral gavage): 10.39 kg | Carcass fabrication, Boston butt (finishing barrows [2]; NR 30 mg/kg daily oral gavage): 3.22 kg | Carcass fabrication, Ham (finishing barrows [2]; NR 30 mg/kg daily oral gavage): 9.63 kg | Carcass fabrication, Picnic shoulder (finishing barrows [2]; NR 30 mg/kg daily oral gavage): 4.42 kg | Carcass weight (finishing barrows [2]; NR 30 mg/kg daily oral gavage): 97.4 kg | Last lumbar subcutaneous fat (finishing barrows [2]; NR 30 mg/kg daily oral gavage): 0.83 cm | Last rib subcutaneous fat (finishing barrows [2]; NR 30 mg/kg daily oral gavage): 0.91 cm | Loin eye area (finishing barrows [2]; NR 30 mg/kg daily oral gavage): 7.3 in² | Marbling (National Pork Producers Council marbling score) (finishing barrows [2]; NR 30 mg/kg, 1 = none and 10 = abundant): 2.4 | Color (National Pork Producers Council color score) (finishing barrows [2]; NR 30 mg/kg, 1 = pale pinkish gray to white, 6 = dark purplish red): 3.4 | PM fiber CSA ([3]; 250 mM NR in ovo at d 10): did not affect | Muscle fiber density vs saline in the albumen ([3]; 250 mM NR into albumen): not differ | Increase of PM fiber density ([3]; 250 mM NR into the yolk sac): 45% | Muscle fiber density vs saline in the yolk ([3]; 250 mM NR into yolk): more | SDH staining intensity [4]: no treatment effect
